Publication PMC10057996, “A Comparative Study of the Inhibitory Action of Berberine Derivatives on the Recombinant Protein FtsZ of E. coli” (International Journal of Molecular Sciences, 2023)
Where a name gives a salt, the structure may show the parent alone.

Experiments:
FtsZ [1] = biological target: T1, FtsZ (Escherichia coli, UniProt P0A9A6); assay: FtsZ GTPase assay (BIOMOL Green, Pi release); assay type: biochemical, E. coli; settings: for inhibition mechanism on FtsZ GTPase activity: from KM and Vmax changes at 40 µM compound; for Vmax (Pi Released/min): in presence of 40 µM compound, 6 µM FtsZ, pH 6.8, untreated 0.63 ± 0.01
T1 construct: made in house; host or cells: E. coli
T1 sequence (P0A9A6 whole entry): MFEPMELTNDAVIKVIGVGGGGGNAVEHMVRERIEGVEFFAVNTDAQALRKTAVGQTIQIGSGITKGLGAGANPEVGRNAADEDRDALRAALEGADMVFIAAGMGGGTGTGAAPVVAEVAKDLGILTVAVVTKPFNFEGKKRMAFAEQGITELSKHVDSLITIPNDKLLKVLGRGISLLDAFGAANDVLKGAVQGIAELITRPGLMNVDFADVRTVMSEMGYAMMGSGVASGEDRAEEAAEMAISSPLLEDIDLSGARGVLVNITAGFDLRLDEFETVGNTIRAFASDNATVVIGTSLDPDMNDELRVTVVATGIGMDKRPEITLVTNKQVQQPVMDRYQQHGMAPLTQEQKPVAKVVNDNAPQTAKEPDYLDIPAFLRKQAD
Description: The functional effect of the berberine analogues 1c,d,f,i, and 1-2g,h on FtsZ was investigated by enzymatic assays. A recombinant form of FtsZ was produced in E. coli, purified according to [21], and used for binding assays. The GTPase activity of the FtsZ protein was assayed in the presence of the berberine-related compounds at 40 μM concentration and was monitored in comparison with the untreated protein at different GTP concentrations. The kinetic parameters were calculated according to the Michaelis–Menten equation using GraphPad Prism 8 for all the berberine-related compounds. The software returned KM (μM) and Vmax (Pi released/min) kinetic parameters that indicated the mechanism of inhibition exerted by each compound.
The determination of the inhibition constant Ki for these compounds was performed to further investigate the mode of inhibition and clarified the potency of the competitive inhibitors. The Ki values were calculated performing kinetic analyses at different concentrations of competitive inhibitors (20 μM, 40 μM, and 60 μM).
The FtsZ GTPase assay was performed using 6 μM FtsZ in reaction buffer 25 mM PIPES/NaOH, pH 6.8. The mixture containing FtsZ was incubated for 30 min at 30 °C, and different concentrations of GTP (from 0 µM to 500 µM) were added for a reaction time of 10 min, either in the absence or in the presence of 40 µM 1c, 1d, 1f, 1i, 1g, 1h, 2g, and 2h. The reaction was performed for 10 min and stopped by the addition of 100 µL BIOMOL Green reagent. The amount of Pi released during the assembly of FtsZ was monitored using BIOMOL Green phosphate reagent (Biomol, Milan, Italy) after incubation at 25 °C for 25 min by measuring the absorbance at 620 nm. The negative control (without enzyme) was subtracted from all the readings. The experiment was performed in duplicate. The data were elaborated in order to report U/mg VS substrate concentration, and kinetic parameters were fitted by nonlinear regression with GraphPad Prism 8 (GraphPad Software, San Diego, CA, USA). The inhibition constant (Ki) for all competitive inhibitors was calculated performing different kinetic analyses in the presence of 20, 40, and 60 µM of compounds and using the following equation: Ki=I/α−1 where α=KMapp/KM

FtsZ [2] = biological target: T1, FtsZ; assay: Fluorescence binding assay (quenching of compound fluorescence by FtsZ); set-up: species or system E. coli; settings: dissociation constant Kd, excitation 295 nm, emission 327 nm, 20 °C
Description: Therefore, the intrinsic fluorescence of compound 1c was monitored at increasing concentrations of recombinant FtsZ. The sample was excited at 295 nm, and the fluorescence emission of the compound 1c was recorded.
A 1.5 mL solution containing the 1c compound was titrated by successive additions of FtsZ protein (from 0.010 to 0.120 µM). Titrations were done manually, and fluorescence spectra were measured in the range of 280–500 nm at the excitation wavelength of 295 nm. The fluorescence spectra were recorded using a Horiba Scientific Fluoromax-4 spectrofluorometer, using a quartz cell with an optical path of 1 cm, under controlled temperature conditions (Peltier control system at 20 °C). All experiments were carried out in duplicate. The change in the fluorescence intensity of the reaction set was fitted into the “one site-specific binding” equation of GraphPad Prism 8 (GraphPad Software, San Diego, CA, USA).
Figure 6 Fluorescence binding assay of compound 1c with FtsZ. (a) Emission fluorescence spectra at different concentrations of FtsZ. (b) ΔF at 325 nm vs FtsZ concentration. Experimental data were adjusted to a non-linear regression, and the Kd binding constant was estimated using GraphPad Prism 8. The experiments were performed in duplicate, and the standard deviation is reported as error bars.

FtsZ [3] = biological target: T1, FtsZ; assay: FtsZ polymerization assay by sedimentation, SDS-PAGE densitometry; assay type: biochemical, E. coli; settings: inhibitor concentration 60 µM, 150 µM GTP
Description: Inhibition of the GTPase activity of FtsZ might prevent the polymerization of the protein, which is well known to occur in the presence of GTP. We then investigated the effect of berberine analogues on the polymerization of FtsZ. The recombinant protein was incubated with 150 µM GTP in the absence and in the presence of increasing concentrations of berberine-related compounds. The FtsZ filaments were purified by centrifugation, analysed by SDS-PAGE, and the amount of polymerized protein was determined by densitometric analysis of the corresponding Coomassie-stained gel bands.
Assays for FtsZ polymerization by sedimentation were performed by incubating 6 μM FtsZ with 150 µM GTP in 25 mM PIPES/NaOH, pH 6.8 for 60 min at 25 °C. The assays were carried out in the presence and in the absence of 20 μM, 40 μM, and 60 μM of berberine analogues. The reaction mixtures were centrifuged for 60 min at 14,000 rpm, the pellets were run on 12.5% sodium dodecyl sulphate (SDS)-polyacrylamide gels, and stained by Coomassie blue. Subsequently, the images of the gels were acquired by ChemiDocTM, and the relative amount of FtsZ in the bands was determined densitometrically using the Quantity One software.
Figure 3 Polymerization assay of recombinant FtsZ (6 µM) was carried out in 25 mM PIPES/NaOH, pH 6.8, and 150 µM of GTP in the presence of berberine analogues. […]

FtsZ [4] = biological target: T1, FtsZ; assay: TEM microscopy of FtsZ protofilaments; assay type: biochemical, E. coli; settings: 60 µM compound, 150 µM GTP
Description: The capability of berberine analogue 1i to inhibit FtsZ polymerization was also assessed by TEM microscopy, by analysing the FtsZ protofilaments of in the presence of 60 µM 1i in comparison with the untreated sample.
FtsZ polymerization reaction solutions were diluted 1:10 in polymerization buffer in the presence and in the absence of 60 µM 1c and 1i. Then, 5 µL drops of the samples for TEM analysis were placed on a carbon-coated copper TEM grid for 20 min. Excess solution was wicked away with filter paper. Negative staining with 1% phosphotungstic acid (PTA) solution at pH 7.0 was carried out by depositing a drop of PTA solution on the grid for 1 min and then blotted dry with filter paper. The grid was allowed to dry, and images were collected using a FEI TECNAI G2 S-twin apparatus operating at 120 kV (LaB6 source).
Figure 4 Transmission electron microscopic images of FtsZ in the absence (a) and in the presence of 1i inhibitors (b). The protofilaments are seen to be polymerized in an organized manner in the absence of inhibitor (a). 1i at 60 μM concentrations inhibit the FtsZ polymerization. Experimental conditions for all the FtsZ polymerization studies were […], PIPES 25 mM pH 6.8, KCl 50 mM, and 150 µM GTP.

E. coli = assay: Minimum inhibitory concentration determination; assay type: cell-based; settings: Escherichia coli, 24 h, read-out: MIC E. coli
Description: Finally, we evaluated the in vitro antimicrobial activity of the newly synthesized berberine analogues (2g,h) on E. coli strain. The Minimal Inhibitory Concentrations (MICs) of both compounds were determined as the lowest concentration showing no visible growth after 24 h of incubation. The MIC values for 2g and 2h are reported in Table 4, together with the most interesting compounds previously reported.
In brief, the bacterial strain was incubated overnight in LB at 37 °C. The cultures were diluted approximately to 5 × 10^5 CFU/mL, and 50 μL of bacterial suspension was added to ten wells and incubated with serial dilutions of berberine analogues from an initial concentration of 500 µM. The sterility control well contained 100 μL of LB, while the growth control well contained 100 μL of microbial suspension. […] All determinations of all assays were performed in triplicate.

Structure (SMILES) | Ki (FtsZ [1]) [µM] | inhibition mechanism on FtsZ GTPase activity (FtsZ [1]) | Vmax (Pi Released/min) (FtsZ [1]) [Pi released/min] | Kd (FtsZ [2]) [nM] | amount of polymerized FtsZ (FtsZ [3]) | FtsZ protofilaments observed by TEM (FtsZ [4]) | MIC (E. coli) [µM] | melting point [°C]
COc1cccc(CN(C)CCc2ccc3c(c2)OCO3)c1OC [1c] | 25 | classical competitive inhibition mechanism | 0.54 ± 0.03 | 26.6 | – | – | – | –
CCN(CCc1ccc2c(c1)OCO2)Cc1cccc(OC)c1OC [1d] | 44 | classical competitive inhibition mechanism | 0.58 ± 0.01 | – | – | – | – | –
CCCCCCN(CCc1ccc2c(c1)OCO2)Cc1cccc(OC)c1OC [1f] | – | non-competitive inhibition mechanism | 0.35 ± 0.01 | – | – | – | – | –
Clc1ccc(CNCCc2ccc3c(c2)OCO3)cc1 [1g] | 41 | classical competitive inhibition mechanism | 0.60 ± 0.02 | – | – | – | – | –
c1ccc2c(CNCCc3ccc4c(c3)OCO4)cccc2c1 [1h] | 119 | classical competitive inhibition mechanism | 0.59 ± 0.01 | – | – | – | – | –
O=[N+]([O-])c1ccccc1CNCCc1ccc2c(c1)OCO2 [1i] | – | non-competitive inhibition mechanism | – | – | almost negligible | no protofilaments could be observed | – | –
CN(CCc1ccc2c(c1)OCO2)Cc1ccc(Cl)cc1 [2g, 2-(1,3-Benzodioxol-5-yl)-N-[(4-chlorobenzyl]-N-methylethan-1-amine hydrochloride] | – | acompetitive inhibitory mechanism | – | – | – | – | 128 | –
CN(CCc1ccc2c(c1)OCO2)Cc1cccc2ccccc12.Cl [2h, 2-(2H-1,3-Benzodioxol-5-yl)-N-methyl-N-[(naphthalen-1-yl)methyl]ethan-1-amine hydrochloride] | 51 | classical competitive inhibition mechanism | 0.58 ± 0.01 | – | – | – | > 512 | 188 to 190
